Measured values from BindingDB's records for patent US20240279215 (Cytokinetics, Incorporated, 2024).

Target: Nicotinamide phosphoribosyltransferase (Homo sapiens, UniProt P43490)
Experiment: NMN Fluorescence Biochemical Assay
Method: Compounds described herein were assayed for their ability to stimulate the synthesis of nicotinamide mononucleotide (NMN) by the enzyme NAMPT. The human recombinant enzyme assay measures the activation of the enzyme activity by compounds using recombinant enzyme and substrates in a buffered cell-free system. The assay conditions closely mimic cellular environments. Dose responses were measured using an assay to detect the formation of nicotinamide mono-nucleotide. All experiments were performed in the 384-well format. Generally, 0.5 μL of DMSO containing varying concentrations of the test compound was mixed with 10 μL of the enzyme reagent solution. Enzyme reactions were initiated with the addition of […] containing the substrates. The final assay conditions were as follows: 6 nM human NAMPT, 2.5 mM ATP, 20 μM PRPP and 150 μM nicotinamide in 50 mM HEPES, pH 7.2, 1 mM DTT, 1 mM CHAPS 50 mM NaCl, 100 mM MgCl2. Following an incubation of 60 min at ambient temperature, 10 μL of 20% acetophenone in DMSO was added, followed by 10 μL of 2 M KOH and 40 μL of formic acid. The plates were read for fluorescence (Excitation/Emission=355 nm/460 nm) using an EnVision plate reader after 40 mins of incubation at ambient temperature.

Chain of Nicotinamide phosphoribosyltransferase (P43490 whole entry): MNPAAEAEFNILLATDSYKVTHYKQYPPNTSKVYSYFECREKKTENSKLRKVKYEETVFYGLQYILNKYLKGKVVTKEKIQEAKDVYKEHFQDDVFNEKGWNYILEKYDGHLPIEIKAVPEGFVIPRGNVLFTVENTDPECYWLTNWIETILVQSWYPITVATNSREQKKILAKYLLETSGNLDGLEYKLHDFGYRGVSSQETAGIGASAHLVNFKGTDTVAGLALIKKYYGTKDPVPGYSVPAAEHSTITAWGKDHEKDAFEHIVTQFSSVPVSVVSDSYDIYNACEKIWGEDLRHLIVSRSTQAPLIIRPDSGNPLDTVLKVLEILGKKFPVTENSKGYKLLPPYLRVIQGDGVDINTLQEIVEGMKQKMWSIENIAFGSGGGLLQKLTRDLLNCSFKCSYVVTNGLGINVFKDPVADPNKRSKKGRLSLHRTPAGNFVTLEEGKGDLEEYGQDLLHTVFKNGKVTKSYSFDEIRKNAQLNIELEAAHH

EC50 [µM] | SMILES
5.38 | O=C(Nc1ccc(CC2CCN(CC(F)F)CC2)cc1)OCc1ccncc1 [US20240279215, Compound 52]
15.8 | O=C(Nc1ccc(CN2C(=O)CC[C@@H]2c2cccnc2)cc1)OCc1ccc(Cl)cc1 [US20240279215, Compound 249]
7.94 | CN(Cc1ccccc1)S(=O)(=O)c1ccc(NC(=O)OCc2ccc(Cl)cc2)cc1 [US20240279215, Compound 335]
11.5 | CN(C1CCOC1)S(=O)(=O)c1ccc(NC(=O)OCc2ccc(Cl)cc2)cc1 (centres undefined) [US20240279215, Compound 342]
